The source of these data is patent US5280111A, “Sulfated tocopheryl oligosaccharides and antiviral agents including the same as active ingredients” (Dainippon Ink and Chemicals, Inc., priority 1991, dated 1994).

≈ marks a conversion by molar mass, not a printed value. Like-named read-outs stand apart in the source and are kept apart here.

Format in all cases: cell-based
The test system of one data set is MT-4 cells. As to the kind of experiment: Cytotoxicity: inhibitory effect on host cell viability, mock-infected MT-4 cells (MTT method). As to conditions: human, mt-4 cells, 120 h. How it is done: (§1) Activity of the compound against HIV-1 replication was based on the inhibition of virus induced cytopathogenicity in MT-4 cells. MT-4 cells were suspended in culture medium at 2.5×10^4 cells/ml and infected with HIV-1 at a multiplicity of infection (MOI) of 0.01. 100 μl of cell suspension was brought into microtiter tray wells containing various concentrations of the test compounds.
(§2) After 5 days of incubation at 37° C. using a CO2 incubator, the number of viable cells was determined by the MTT method.
(§3) The inhibitory effect on host cell viability (cytotoxicity) was also determined by the MTT method. All activities of the compounds are expressed as 50% inhibitory concentration, i.e., the concentration required to reduce the number of HIV-1-infected MT-4 cells or mock-infected MT-4 cells by 50%. These are expressed using EC50 and CC50. SI is expressed by the ratio of CC50 /EC50. (Reference document: Pauwels, et al., J. Virol Methods, 20 (1988) 309~321).
(§4) According to this method, the anti-HIV assay was carried out using the compounds obtained in Examples 9 to 14. In addition, AZT (3'-azido-3'-deoxythymidine) known as an anti-AIDS agent was employed as a comparative example.
Background: Tetrazolium assays rely on reduction of a dye to a coloured formazan, in cell work by metabolically active cells.

A further data set deals with HIV-1. As to the kind of experiment: Anti-HIV assay: inhibition of virus induced cytopathogenicity in MT-4 cells (MTT method). As to conditions: for EC50: HIV-1-infected MT-4 cells, MOI 0.01, 5 days at 37° C., MTT method; for SI: ratio of CC50/EC50, 7200 min. How it is done: as §1, §2, §3, §4
In general terms: Protection from cytopathic effect is a common read-out in antiviral testing.

Data set [1] can be described thus: Cytotoxicity: inhibitory effect on host cell viability, mock-infected MT-4 cells (MTT method). As to conditions: human; mock-infected MT-4 cells; 50% reduction of viable cells; MTT method; 5 days at 37° C. As to the method:
as §1, §2, §3, §4

For orientation: CC50 means the concentration at which the toxic effect on the cells reaches its halfway point. A low value points to greater toxicity to the cells. `Cc1c(C)c2c(c(C)c1O[C@@H]1O[C@H](COS(=O)(=O)O)[C@@H](O[C@@H]3O[C@H](COS(=O)(=O)O)[C@H](O[C@@H]4O[C@H](COS(=O)(=O)O)[C@H](O[C@@H]5O[C@H](COS(=O)(=O)O)[C@H](OS(=O)(=O)O)[C@H](OS(=O)(=O)O)[C@H]5OS(=O)(=O)O)[C@H](OS(=O)(=O)O)[C@H]4OS(=O)(=O)O)[C@H](OS(=O)(=O)O)[C@H]3OS(=O)(=O)O)[C@H](OS(=O)(=O)O)[C@H]1OS(=O)(=O)O)CCC(C)(CCCC(C)CCCC(C)CCCC(C)C)O2` (mixture of isomers) [Example 13, sulfated dl-α-tocopheryl β-D-galactosyl(1→4)-β-D-galactosyl(1→4)-β-D-lactoside]: the CC50 in the data set on MT-4 cells worked out at 621 mg/L.
Usually EC50 stands for the concentration that produces a half-maximal response. Regarding `Cc1cn([C@H]2C[C@H](N=[N+]=[N-])[C@@H](CO)O2)c(=O)[nH]c1=O` [AZT, 3'-azido-3'-deoxythymidine, reference compound], in the data set with HIV-1 (Human immunodeficiency virus 1, MT4, 120 h, read-out: EC50), the EC50 was found to be 0.0013 mg/L (≈ 0.00486 µM). Also, the SI in the data set with HIV-1 worked out at 2160. In data set [1], this compound yielded a CC50 at 120 h of 2.88 mg/L (≈ 10.8 µM).
Take “sulfated dl-α-tocopheryl β-D-galactosyl(1→4)-β-D-galactosyl(1→4)-β-D-lactoside [Example 14]”: in the data set with HIV-1, the EC50 is 0.57 mg/L and the SI stood at 1151. The same compound yielded a CC50 with MT-4 cells of 656 mg/L.
In the same order, the values of “sulfated dl-α-tocopheryl β-D-galactosyl(1→4)-β-D-lactoside [Example 9]” are 1.03 mg/L, 587 and 606 mg/L.
In the same order, the values of “sulfated ester sodium salt of dl-α-tocopheryl β-D-glucosyl(1→3)-{β-D-glucosyl(1→3)}3 -β-D-glucoside (1) [Example 10]” are 0.52 mg/L, > 920 and > 480 mg/L.
“sulfated ester sodium salt of dl-α-tocopheryl β-D-glucosyl(1→3)-{β-D-glucosyl(1→3)}3 -β-D-glucoside (2) [Example 11]”: in the data set on HIV-1, the EC50 amounted to 0.45 mg/L and the SI is given as > 1000. Further, the CC50 with MT-4 cells is > 480 mg/L.
In the same order, the values of “sulfated ester sodium salt of dl-α-tocopheryl β-D-glucosyl(1→3)-{β-D-glucosyl(1→3)}7 -β-D-glucoside [Example 12]” are 0.44 mg/L, > 1000 and > 480 mg/L.
